Among the data in PubChem BioAssay AID788 (SRMLSC, 2007) are IC50 values, retold here.

The source made the active and inactive calls. The rule behind the calls is not given here. Where only a bound is given, the exact number is not on record here.

Assay [1] concerns S. cerevisiae wild-type background strain growth inhibition. The experiment in a line: growth inhibition of vps1Δ apl2Δ yeast, dose response, post-Golgi transport modulator project, S. cerevisiae, background strain comparison (AID 788). To be noted: S. cerevisiae vps1Δ apl2Δ growth inhibition, dose response; measured here: wild-type background strain growth.
For assay [2], the system named is S. cerevisiae vps1Δ apl2Δ growth inhibition, dose response. The assay is described as above.

Regarding `CCCn1c(SCc2cc(=O)oc3ccc4ccccc4c23)n[nH]c1=O`, the IC50 in assay [1] was > 10 µM; in assay [2] it was > 10 µM (inactive). The corresponding values for `OC(COCc1ccc(Cl)cc1)CN1CC=C(c2ccccc2)CC1` (configuration not stated) are 20.8 µM and 4.71 µM. The like results for `CCOC(=O)c1cc2c(ccn2C)n1CC(=O)N1CCN(c2ccccc2OC)CC1` were, in that order, > 10 µM and > 10 µM (inactive). On to `CCc1ccc(C(=O)/C=C/c2ccc([N+](=O)[O-])o2)cc1`, for which the IC50 in assay [1] is 20.7 µM; in assay [2], 23.1 µM (inactive). The corresponding values for `CCSc1nnc(NC(=O)NCC(F)(F)F)s1` are > 10 µM and > 10 µM (inactive). With `c1ccc2c(c1)oc1c(Nc3ccc(CN4CCOCC4)cc3)ncnc12`, the concentration for half-maximal inhibition (IC50) in assay [1] is > 10 µM. For the compound `COc1ccc(OCCSc2nnc3sc4ccccc4n23)cc1`, the IC50 in assay [2] is > 10 µM (inactive). As to `COc1ccc2oc(=O)c(-c3nnc(NCc4ccco4)s3)cc2c1`, the IC50 in assay [1] is > 10 µM; in assay [2], > 10 µM (inactive). The corresponding values for `Cc1ccc(-n2cc3c(-c4cccc(Br)c4)nnc(C)c3n2)cc1` are 13.5 µM and 1.94 µM. Consider `Cc1cccc(-c2nnc(-c3cccc(NC(=O)Cc4cccs4)c3)o2)c1`, for which, in assay [1], the IC50 turned out to be 15.2 µM. For `CC(C)(C)n1nnnc1CN(Cc1cccnc1)Cc1ccccc1Cl`, the IC50 in assay [1] was > 10 µM; in assay [2], > 10 µM (inactive). With `COc1ccc(-c2nnc(CSc3nc4ccccc4c(=O)n3C)o2)cc1OC`, the figures for the IC50 in assay [1] and in assay [2] were > 10 µM and > 10 µM (inactive), respectively. Regarding `CCN(CC)c1ccc(CN2CC=C(c3ccc(F)cc3)CC2)cc1`, the half-maximal inhibitory concentration (IC50) was 25.8 µM in assay [1] and 9.87 µM in assay [2]. For the compound `CCOC(=O)c1cccnc1SCc1cc(=O)n2ccccc2n1`, the results for the half-inhibitory concentration (IC50) in assay [1] and in assay [2] were > 10 µM and > 10 µM (inactive), respectively. `CCOC(=O)c1c(NC(=O)CN2CCCCC2)sc2c1CCC(C=O)=C2Cl`: the concentration for half-maximal inhibition (IC50) was > 10 µM in assay [1] and > 10 µM (inactive) in assay [2].

Regarding `COc1ccc(Cl)cc1NC(=O)C(C)N1CCN(C/C=C/c2ccccc2)CC1` (configuration not stated), the results for the IC50 in assay [1] and in assay [2] were 15 µM and 9.01 µM, respectively. The like results for `CCN1C(=O)c2ccc(C(=O)NCc3ccccc3)cc2C1=O` were, in that order, > 10 µM and > 10 µM (inactive). Consider `CCOc1cc(/C=C\[N+](=O)[O-])ccc1OCC(=O)Nc1ccccc1C`, for which the IC50 in assay [1] is > 10 µM. On to `CCCCC1(CCCC)C(=O)NC(=Nc2cccc(C)c2)NC1=O`, for which the figures for the 50% inhibitory concentration (IC50) in assay [1] and in assay [2] were > 10 µM and > 10 µM (inactive), respectively.

With `CCOC(=O)C(C)Oc1ccc2c(C)cc(=O)oc2c1C(C)=O` (configuration not stated), the IC50 was > 10 µM in assay [1] and > 10 µM (inactive) in assay [2]. Consider `Cc1cc(OCC(F)(F)C(F)(F)C(F)(F)C(F)(F)C(F)(F)C(F)F)nc(N)n1`, for which the IC50 in assay [1] is > 10 µM; in assay [2], > 10 µM (inactive).

Consider `Cc1ccc(C(=O)c2c(NC(=O)c3ccncc3)sc3c2CCCC3)cc1`, for which the figures for the IC50 in assay [1] and in assay [2] were > 10 µM and 16.9 µM, respectively. The corresponding values for `Cc1ccc(OCC(O)CN2CCN(Cc3ccc4c(c3)OCO4)CC2)c(C)c1` (configuration not stated) are > 10 µM and 2.35 µM. The corresponding values for `O=C(NCc1ccco1)C(c1cccs1)N(C(=O)Cc1cccs1)c1ccccc1` (configuration not stated) are > 10 µM and > 10 µM (inactive). The corresponding values for `CCOC(=O)NC(Nc1ccc(S(N)(=O)=O)cc1)(C(=O)OCC)C(F)(F)F` (configuration not stated) are > 10 µM and > 10 µM (inactive). Turning to `Cc1nn(-c2ccccn2)c(C)c1Oc1ccccc1O`, the IC50 was > 10 µM in assay [1] and > 10 µM (inactive) in assay [2]. For `COCCNC(=O)C(c1ccc(F)cc1)N(CC1CCCO1)C(=O)CCC(=O)Nc1ccccn1` (configuration not stated), the IC50 is > 10 µM in assay [1] and > 10 µM (inactive) in assay [2]. Turning to `Cc1cc(NCCCN2CCOCC2)n2ncc(-c3ccc(Cl)cc3)c2n1`, in assay [1], the 50% inhibitory concentration (IC50) was > 10 µM. In the case of `Cc1[nH]nc(N=CC2=C(O)CC(C)(C)CC2=O)c1-c1ccc(Cl)cc1`, in assay [2], the IC50 was > 10 µM (inactive).

With `O=C(C1CCCN(S(=O)(=O)c2ccc(Cl)cc2)C1)N(Cc1cccs1)C1CC1` (configuration not stated), the IC50 in assay [2] is > 10 µM (inactive). The same measure, in the same setting: in the case of `Cc1ccc(C(=O)Nc2ccc(Cc3ccncc3)cc2)cc1[N+](=O)[O-]` it was 23.4 µM. As to `CCCCC(=O)Nc1nc(C)c(-c2csc(Nc3ccc(Cl)cc3)n2)s1`, in assay [1], the IC50 stood at 6.26 µM. Regarding `O=[N+]([O-])c1cc(Cl)cc(/C=N\Nc2ccccn2)c1O`, the IC50 in assay [2] was 9.68 µM. In assay [1], `O=C(Nc1nnc(-c2ccc(Cl)cc2)o1)c1ccccc1Br` showed an IC50 of 13.1 µM. For `CC1CCC(C(C)C)C(OCC(O)CN2CCN(Cc3ccccc3)CC2)C1` (configuration not stated), the IC50 in assay [2] is 4.77 µM. The same measure, in the same setting: with `CCOc1ccc(NC(=O)N(C2CCCCC2)C(C)c2cccnc2)cc1` (configuration not stated) the figure was 15 µM; with `O=C(OCn1ncc(Br)c(Br)c1=O)c1ccccc1Cl`, 21 µM. The same measure, in the same setting: in the case of `CC(Sc1ccsc1[N+](=O)[O-])C(=O)NCCc1ccc(Cl)cc1` (configuration not stated) it was > 10 µM (inactive). Take `O=C(Nc1ccccc1)C1=C(O)CC(c2ccco2)CC1=Nc1ccccc1` (configuration not stated): in assay [1], the concentration for half-maximal inhibition (IC50) is > 10 µM. Consider `O=C(CN1CCN(c2ccccn2)CC1)Nc1ccc(Oc2ccccc2)cc1`, for which the IC50 in assay [2] is > 10 µM (inactive). Take `CCOC(=O)C1=C(N)N2C(=O)C(C)SC2=C(C(=O)OC)C1c1ccccc1OC` (configuration not stated): in assay [1], the IC50 worked out at 0.163 µM.

As for `CC(C)c1ccc(C(=O)CSc2n[nH]c(-c3ccncc3)n2)cc1`, the IC50 in assay [2] is 5.64 µM. On to `C=C(C)COc1ccc(-c2ncncc2Oc2ccc(OC)cc2)c(O)c1`, for which the IC50 in assay [1] is > 10 µM. For `CCCCCCOc1ccc(CN2CCN(CCO)CC2)cc1`, the 50% inhibitory concentration (IC50) in assay [2] was 5.19 µM. As for `N#Cc1ccccc1Cn1cc(C(=O)c2cccs2)c2ccccc21`, the IC50 in assay [2] is > 10 µM (inactive). The same measure, in the same setting: with `CC12CCC(c3c(C(=O)Nc4nccs4)nn(-c4ccccc4)c31)C2(C)C` (configuration not stated) the figure was > 10 µM (inactive). Same read-out and setting: in the case of `O=S(=O)(Cc1ccccc1Cl)N1CCN(Cc2ccc3c(c2)OCO3)CC1` it was 9.91 µM.

As to `Cc1nnc(-c2cccc(Br)c2)c2cn(-c3ccccc3)nc12`, in assay [1], the IC50 is > 10 µM. Regarding `CC(c1nnc(SCn2nnc3ccccc3c2=O)n1-c1ccc(Cl)cc1)N(C)C` (configuration not stated), the concentration for half-maximal inhibition (IC50) in assay [2] is 2.16 µM.

For the compound `O=C(NC1CCN(Cc2ccccc2)CC1)C1COc2ccccc2O1` (configuration not stated), in assay [1], the IC50 was > 10 µM. The same measure, in the same setting: in the case of `CC1CC(C)CN(CC(C)(C)NS(=O)(=O)c2ccc(Cl)cc2)C1` (configuration not stated) it was > 10 µM. Take `CCOc1nc(SCCOc2ccccc2)nc(N(C)C)n1`: in assay [2], the IC50 was > 10 µM (inactive). In the case of `O=C1C=C(c2ccccc2)C(=O)N1Nc1ccccc1`, in assay [2], the IC50 was 20 µM. Turning to `Cc1c(Cl)c([N+](=O)[O-])nn1Cc1ccc(C(=O)N/N=C\c2cccc(Br)c2)o1`, the concentration for half-maximal inhibition (IC50) in assay [1] was > 10 µM.

`CC1CCN(S(=O)(=O)c2ccc(NC(=O)CCN3C(=O)c4ccccc4C3=O)cc2)CC1`: in assay [2], the IC50 was > 10 µM (inactive).

Turning to `N=c1c2c(-c3ccccc3)c(-c3ccccc3)n(Cc3ccco3)c2ncn1Cc1ccccc1`, the half-inhibitory concentration (IC50) in assay [2] was 18.9 µM.

With `O=C(NCC(c1cccnc1)N1CCN(c2ccc(F)cc2)CC1)OCc1ccccc1` (configuration not stated), in assay [2], the IC50 was 22.9 µM. Same read-out and setting: in the case of `O=C(NCC1COc2ccccc2O1)c1ccc(Cl)cc1` (configuration not stated) it was 1.32 µM; in that of `O=S1(=O)C=C(Sc2nc3ccccc3s2)c2ccccc21`, > 10 µM (inactive).
